The subject of assay [1] is human kidney organoids. In words: RT-qPCR in cisplatin-injured human kidney organoids. Type of assay: cell-based. The conditions noted are these: for proximal tubule marker genes / fibrosis/injury marker genes: panel; for fibrosis/injury marker genes: five cisplatin cycles (FIG. 12B). From the text: FIG. 8. SK-124 treatment restores gene expression changes in cisplatin-injured human kidney organoids. RNA was isolated from organoids treated as in FIG. 7 for RT-qPCR for the indicated genes. Injury markers (Pai-1, Fibronectin-1, and Co18a1) are induced by cisplatin treatment and reduced by SK-124. In contrast, the proximal tubule marker Lrp2 is reduced by cisplatin treatment and rescued by SK-124.
FIGS. 10A-10B. SK-124 treatment restores gene expression changes in cisplatin-injured human kidney organoids. RNA was isolated from organoids treated as in FIG. 9 with the indicated number of cisplatin cycles plus DMSO control (“Cis”) or SK-124 (10 μM; “Cis+SK”) for RT-qPCR. […] (B) Injury/fibrosis markers (FN-1, Co/8a1, and Pai-1) were induced by cisplatin and suppressed by SK-124.
FIGS. 12A-12B. SK-124 protects human kidney organoids from cisplatin injury in a dose-dependent manner. RNA was isolated from organoids treated as in FIG. 11 for RT-qPCR. (A) Proximal tubule marker genes are reduced by cisplatin and increased by SK-124. (B) Fibrosis/injury marker genes are induced by cisplatin and reduced by SK-124.
BJFF human induced pluripotent stem cells (hPSCs) were maintained on Geltrexcoated (Thermo Fisher Scientific) plates using StemFit Basic04 Complete (Ajinomoto Co. Inc.) as previously reported(25). The cells were passaged weekly using Accutase (STEMCELL Technologies) for dissociation and Y27632 (Tocris) for adhesion. Directed differentiation of hPSCs into kidney organoids has been published elsewhere (29). Briefly, hPSCs were differentiated into metanephric mesenchyme cells on day 8 by a three-step directed differentiation protocol. Metanephric mesenchyme was transferred into suspension culture in 96-well ultralow adhesion plates (Coming) and further differentiated into kidney organoids, as previously reported(25). Quality control measures of SIX2 immunostaining on day 8 of differentiation and CDH1, LTL, PODXL, CD146, MEIS1/2/3, and SYTOX-blue staining on day 21 were performed on all batches of kidney organoids to limit batch-to-batch heterogeneity. Kidney organoids were maintained in 200 μl of basal media consisting of Advanced RPMI (Thermo Fisher Scientific) and GlutaMAX (Thermo Fisher Scientific) in 96-well plates, as previously reported. Media changes were conducted three times weekly with removal of 90 [l and addition of 100 μl of fresh basal media.
(§1) For cisplatin induced injury, day 49 organoids were treated with 5 μM cisplatin in basal media after full media change. After 24 hours, full media exchanges were performed. This 24-hour treatment was performed twice a week, on day 52-53, day 56-57, day 59-60, and day 63-64 as well, for a total of five cisplatin treatments. Samples were obtained for RT-qPCR and immunostaining immediately following each 24-hour treatment with cisplatin, and from corresponding controls.
cDNA was prepared using Primescript RT kit (Takara Inc), with 750 ng RNA per reaction. RT-qPCR was performed by using PerfeCa® SYBR® Green FAstMix® ROX (Quanta bio) in the StepOnePlus™ Real-time PCR System (Applied Biosystems). Hmbs was used as a control housekeeping gene for mouse samples, and B-Actin was used for organoids, relative expression was calculated (2^-deltaCT method) and compared to the mean of control group if necessary. Primers used for RT-qPCR are listed in Table 2 (mouse primers) and Table 3 (human primers).

For assay [2], the system named is human kidney organoids. Description: P21, gammaH2AX and LTL immunostaining in cisplatin-injured human kidney organoids. Type of assay: cell-based. The conditions noted are these: for gammaH2AX induction: cisplatin; for gammaH2AX induction / P21 expression: concurrent SK-124 (FIG. 9); for LTL-positive proximal tubule cells / P21 / gammaH2AX: dose response, five cisplatin cycles (FIG. 11); for P21 expression: indicated number of cisplatin cycles. On the procedure:
FIG. 9. SK-124 treatment protects from cisplatin-induced P21 induction in human kidney organoids. Organoids were treated with the indicated number of cisplatin cycles in the presence of DMSO vehicle (top) or SK-124 (bottom). Organoids were then processed for P21 immunofluorescent microscopy.
FIG. 11. SK-124 protects human kidney organoids from cisplatin injury in a dose-dependent manner. Organoids were treated with five cisplatin cycles in the presence of the indicated doses of SK-124. Subsequently, organoids were immunostained to reveal cellular composition and injury markers P21 (top panels) and gammaH2AX (bottom panels). […] Proximal tubule cells are labeled with LTL staining and are reduced by cisplatin treatment and restored by SK-124 co-treatment.
as §1
Following the treatment, the organoids were collected and immediately fixed in 4% PFA in PBS for 1 hour at room temperature, submerged in 30% sucrose overnight at 4° C., then embedded in O.C.T. Compound (4585. Fisher HealthCare). Subsequently, […] frozen sections were prepared via cryo-sectioning by a cryostat. After 1 hr blocking at room temperature, the sections were treated overnight at 4° C. with primary antibodies in antibody dilution buffer (ADB) with biotinylated LTL (1:200, B-1325, Vector), rat anti-CDH1 (1:500, ab11512, Abcam), goat anti-PODXL (1:500, AF1658, R&D Systems), as well as the antibody of interest, either mouse anti-p21 (1:200, NBP2-43697, Novus Biologicals), or rabbit anti-γH2AX (1:100, 2577, Cell Signaling) antibodies. For the optimum labeling of LTL by biotin/streptavidin interaction, the Streptavidin/Biotin Blocking Kit (SP-2002, Vector Laboratories) was applied according to the manufacturer's instructions. After washing, the samples were stained for 1 hour at RT with the nuclear dye-SYTOX Blue (1:500. S 11348, Invitrogen) and the corresponding secondary antibodies in ADB such as streptavidin-AF750 (1:500, S21384, Invitrogen), donkey anti-rat IgG-AF594 (1:500, A21209, Invitrogen), donkey anti-goat IgG-AF555 (1:500, A21432, Invitrogen), and donkey anti-rabbit IgG-AF488 (1:500, A21206, Invitrogen) for γH2AX or donkey anti-mouse IgG-AF488 (1:500, A21202, Invitrogen) for p21 antibodies as well as mouse anti-Meisl/⅔ (1:200, sc-101850, SantaCruz) conjugated antibody, and slides were mounted with Vectashield antifade mounting medium (H1000, Vector Laboratories).
Finally, the images were captured by the STELLARIS 8 confocal microscope (Leica Microsystems) using 25× water immersion objective lens. The mean diameters of the organoids were measured on the Leica Application Suite X (LAS X) software platform.

Setting [3] is: 5 cisplatin treatments (FIG. 8).
Setting [4] is: 5 cisplatin treatments (FIG. 8), Co18a1 [sic].
The mark [5] stands for this setting: dose response, five cisplatin cycles (FIG. 12).
Where [6] appears, read: dose response, five cisplatin cycles (FIG. 12A).
Where [7] appears, read: time course, indicated number of cisplatin cycles, SK-124 10 μM (FIG. 10A).
Setting [8] is: time course, indicated number of cisplatin cycles, SK-124 10 μM (FIG. 10B).

This note sets out measurements from patent publication US20260306463A1, “SIK INHIBITORS TO TREAT CHRONIC KIDNEY DISEASE” (The General Hospital Corporation, priority 2023, published 2026).

The structures appear in SMILES notation. “Also recorded” adds a separate entry of the source.

Take `CCc1nnc(-c2c(OC)cc(-c3cnc4cc(-c5cnn(C)c5)ccn34)cc2OC)o1` [SK-124, 2-[2,6-Dimethoxy-4-[7-(1-methylpyrazol-4-yl)imidazo[1,2-a]pyridin-3-yl]phenyl]-5-ethyl-1,3,4-oxadiazole]: in the assay with human kidney organoids [1] (setting [3]), the Fibronectin-1 expression entry was “reduced; also recorded: blocked”, the Lrp2 expression entry is listed as “rescued; also recorded: preserved expression” and the Pai-1 expression entry is given as “reduced; also recorded: blocked”. For the same compound, the Col8a1 expression entry in the assay on human kidney organoids [1] (setting [4]) is “reduced; also recorded: blocked”. For the same compound, the “doses at which therapeutic effects are noted in the injury model” value in the assay on human kidney organoids [1] (dose response, cisplatin-injured organoids) is “below 1 μM”. For the same compound, in the assay on human kidney organoids [1] (setting [5]), the Col8al expression entry was “suppressed”, the Fibronectin-1 expression entry was “suppressed” and the Pai-1 expression result was “suppressed”. In the assay with human kidney organoids [1] (setting [6]), the Lrp2 expression result is on record as “dose-dependent restoration”, the Pth1r expression entry is listed as “dose-dependent restoration” and the “proximal tubule marker genes” value was “increased”. Moreover, the fibrosis/injury marker genes entry in the assay with human kidney organoids [1] (dose response) is reported as “reduced”. Besides, in the assay on human kidney organoids [1] (setting [7]), the Lrp2 expression entry is reported as “restored; also recorded: improved expression” and the Slc17a2 expression entry is “restored; also recorded: improved expression”. For the same compound, in the assay with human kidney organoids [1] (setting [8]), the Col8a1 expression entry was “suppressed expression”, the “Fibronectin-1 (FN-1) expression” value is recorded as “suppressed expression” and the Pai-1 expression entry was “suppressed expression”. In addition, in the assay with human kidney organoids [2], the gammaH2AX induction entry is given as “markedly reduced”, the “LTL-positive proximal tubule cells” value is “restored; also recorded: blocked by SK-124 treatment in a dose-dependent manner”, the P21 result is given as “reduced by SK-124 co-treatment in a dose-dependent manner; also recorded: blocked by SK-124 treatment in a dose-dependent manner” and the gammaH2AX entry is given as “reduced by SK-124 co-treatment in a dose-dependent manner”. For the same compound, in the assay with human kidney organoids [2], the P21 expression entry is “markedly reduced”.
For `N.N.[Cl][Pt][Cl]` [cisplatin, reference compound], in the assay with human kidney organoids [1] (setting [3]), the Fibronectin-1 expression entry is “induced”, the Lrp2 expression entry is recorded as “reduced” and the Pai-1 expression result is “induced”. Moreover, the Col8a1 expression result with human kidney organoids [1] (setting [4]) is listed as “induced”. Further, in the assay with human kidney organoids [1] (setting [5]), the Col8al expression entry is “induction”, the Fibronectin-1 expression result is listed as “induction” and the Pai-1 expression entry is reported as “induction”. Further, in the assay on human kidney organoids [1] (setting [6]), the Lrp2 expression result is given as “suppression”, the Pth1r expression result is “suppression” and the “proximal tubule marker genes” value is given as “reduced”. In addition, the fibrosis/injury marker genes result in the assay on human kidney organoids [1] (dose response) is “induced”. For the same compound, in the assay with human kidney organoids [1] (setting [7]), the Lrp2 expression result was “progressively reduced” and the Slc17a2 expression entry was “progressively reduced”. Moreover, in the assay on human kidney organoids [1] (setting [8]), the Col8a1 expression entry is recorded as “induced”, the “Fibronectin-1 (FN-1) expression” value is “induced” and the Pai-1 expression entry is “induced”. Further, in the assay with human kidney organoids [2], the gammaH2AX induction entry is “robust P21 (top) and gammaH2AX (bottom) induction”; the “LTL-positive proximal tubule cells” value was “reduced; also recorded: loss of LTL-positive proximal tubule cells”; the P21 entry was “robust cisplatin-induced P21 induction”; the gammaH2AX result was “induced”. The P21 expression result in the assay with human kidney organoids [2] is “induces P21 expression; also recorded: robust P21 (top) and gammaH2AX (bottom) induction”.
